Measurements as given in PMC10629545, “Identification of a second glycoform of the clinically prevalent O1 antigen from Klebsiella pneumoniae” (Proceedings of the National Academy of Sciences of the …, 2023).

Biological target: T1, His6-WbbZ (WbbZ pyruvyltransferase) (Klebsiella pneumoniae, UniProt A0A0C4KUT2)
T1 construct: His6-tagged, expressed in E. coli TOP10, Ni-NTA purified
Test: PAGE of reaction products; MS and NMR
Assay type: biochemical
Settings: pyruvyl donor, 10 mM PEP; acceptor formed by WbbY; pH 7.5, 10 mM MgCl2, 30 °C

T1 sequence (A0A0C4KUT2 entry or part of it): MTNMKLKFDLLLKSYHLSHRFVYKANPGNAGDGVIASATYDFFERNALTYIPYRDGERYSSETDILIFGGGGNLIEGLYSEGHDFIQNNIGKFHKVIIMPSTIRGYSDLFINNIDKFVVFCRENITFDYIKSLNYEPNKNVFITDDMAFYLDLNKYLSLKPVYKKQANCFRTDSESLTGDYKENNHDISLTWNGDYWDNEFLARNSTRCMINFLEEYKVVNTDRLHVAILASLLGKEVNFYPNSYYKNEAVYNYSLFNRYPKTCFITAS

C=C(OP(=O)(O)O)C(=O)O [PEP]
PAGE of reaction products; MS and NMR: phosphoenolpyruvate (PEP)-dependent reduction of the size of the reaction products
